Experimental data reported in patent publication US20230146455A1, “TREATMENT OF INFLAMMATORY DISEASES WITH PEPTIDES AND PHARMACEUTICAL COMPOSITIONS” (Yuyu Pharma, Inc., priority 2020, published 2023).
Several values for one entry are separate records, joined by “and”; a condition that tells them apart may be missing. Equal values may be shown once. Where a SMILES comes first, the peptide text is derived from it. [ ]: non-standard residue; d: D form. Hyp = O=C(O)[C@@H]1C[C@@H](O)CN1

System: IL-6
Assay: Example 9 Luminex, LPS hPBMCs: IL-6
Assay type: cell-based, human
Details: Bead IL-6, PBMC + LPS(5 ug/ml)
Description: Treatment Human PBMCs were pretreated with YY-101, YDE-011 and YDE-043 or reference compound; Xiidra® at various concentration (ranging from 1 nM to 100 uM) for 2 h before stimulation. An equal volume of 0.5% DMSO was used as a vehicle control. Then, the cells were treated with LPS at 5 ug/ml. The supernatants from treated cells were harvested at 24 h and placed in a 96 well for Luminex cytokine & chemokine profiling using a Luminex 200 multiplex assay (Luminex; R&D system, USA).
The main study arm with triplicate wells per group in a 24-well plate: • 1. Blank • 2. PBMC: 0.5% DMSO • 3. PBMC+LPS (5 ug/ml) • 4. PBMC+YY-101 100 uM • 5. PBMC+YY-101 10 uM • 6. PBMC+YY-101 1 uM • 7. PBMC+YY-101 0.1 uM • 8. PBMC+YY-101 0.01 uM • 9. PBMC+LPS (5 ug/ml)+Xiidra®100 uM • 10. PBMC+LPS (5 ug/ml)+Xiidra® 10 uM • 11. PBMC+LPS (5 ug/ml)+Xiidra® 1 uM • 12. PBMC+LPS (5 ug/ml)+Xiidra®0.1 uM • 13. PBMC+LPS (5 ug/ml)+Xiidra®0.01 uM • 14. PBMC+LPS (5 ug/ml)+Xiidra®0.001 uM • 15. PBMC+LPS (5 ug/ml)+YY-101 100 uM • 16. PBMC+LPS (5 ug/ml)+YY-101 10 uM • 17. PBMC+LPS (5 ug/ml)+YY-101 1 uM • 18. PBMC+LPS (5 ug/ml)+YY-101 0.1 uM • 19. PBMC+LPS (5 ug/ml)+YY-101 0.01 uM • 20. PBMC+LPS (5 ug/ml)+YY-101 0.001 uM • 21. PBMC+LPS (5 ug/ml)+YDE-011 100 uM • 22. PBMC+LPS (5 ug/ml)+YDE-011 10 uM • 23. PBMC+LPS (5 ug/ml)+YDE-011 1 uM • 24. PBMC+LPS (5 ug/ml)+YDE-011 0.1 uM • 25. PBMC+LPS (5 ug/ml)+YDE-011 0.01 uM • 26. PBMC+LPS (5 ug/ml)+YDE-011 0.001 uM • 27. PBMC+LPS (5 ug/ml)+YDE-043 100 uM • 28. PBMC+LPS (5 ug/ml)+YDE-043 10 uM • 29. PBMC+LPS (5 ug/ml)+YDE-043 1 uM • 30. PBMC+LPS (5 ug/ml)+YDE-043 0.1 uM • 31. PBMC+LPS (5 ug/ml)+YDE-043 0.01 uM • 32. PBMC+LPS (5 ug/ml)+YDE-043 0.001 uM
Multiplex assay was used to measure 30 cytokines and chemokines. The 1:2, 1:10 and 1:200 diluted cell supernatant and serial dilution of the standard were dispensed into a 96 well plate at 50 ul/well. Then, the pre-mixed cocktail of antibody-coated magnetic beads was dispensed at 50 ul/well and incubated at room temperature for 2 h in a horizontal orbital microplate shaker at 800±500 rpm. The beads were washed using a magnetic device to prevent loss. The biotin-antibody was dispensed in 50 ul of each well and incubated at room temperature for 1 h in a shaker at 800±500 rpm. After washing, streptavidin-PE was added at 50 ul/well and incubated at room temperature for 30 min in a shaker under the same conditions. Finally, after washing, wash buffer (100 ul/well) was added to the plate and incubated in a shaker for 2 min. The Luminex™ 200 setting were set according to the manufacturer's protocol. The data was calculated with a standard five-parameter logistic nonlinear regression analysis of the data (xPonent software 4.2, USA). The levels of cytokine/chemokine are normalized to the live cell counts (1×10^5 cells/mL) and presented as concentrations per mL (pg/mL or ng/mL).

Work on `CC(C)C[C@H](NC(=O)CNC(=O)[C@H](CC(C)C)NC(=O)[C@H](CCC(N)=O)NC(=O)CNC(=O)[C@@H]1C[C@@H](O)CN1)C(=O)N[C@@H](C)C(=O)NCC(=O)N1CCC[C@H]1C(=O)N[C@@H](CCCCN)C(=O)O` [YDE-011] (H-[Hyp]GQLGLAGPK-OH) yielded a Concentration (0.001 uM, Mean) of 6729.3 pg/mL, an MFI (0.001 uM, Mean) of 186.6 and a conc/live cell (0.001 uM, Mean) of 1268.0 pg/10^5. The Concentration (0.001 uM, single replicates) was 6493.4 pg/mL and 6683.4 pg/mL and 7011.0 pg/mL, the MFI (0.001 uM, single replicates) was 179.8 and 185.3 and 194.8 and the conc/live cell (0.001 uM, single replicates) was 1443.0 pg/10^5 and 1152.3 pg/10^5 and 1208.8 pg/10^5. It also gave a Concentration (0.01 uM, Mean) of 7097.0 pg/mL, an MFI (0.01 uM, Mean) of 197.3 and a conc/live cell (0.01 uM, Mean) of 1218.8 pg/10^5. For the same molecule, the Concentration (0.01 uM, single replicates) was 7131.5 pg/mL and 6924.8 pg/mL and 7234.7 pg/mL, the MFI (0.01 uM, single replicates) was 198.3 and 192.3 and 201.3 and the conc/live cell (0.01 uM, single replicates) was 1150.2 pg/10^5 and 1357.8 pg/10^5 and 1148.4 pg/10^5. It also gave a Concentration (0.1 uM, Mean) of 6700.6 pg/mL, an MFI (0.1 uM, Mean) of 185.8 and a conc/live cell (0.1 uM, Mean) of 1180.6 pg/10^5. For the same molecule, the Concentration (0.1 uM, single replicates) was 6458.9 pg/mL and 6907.6 pg/mL and 6735.2 pg/mL, the MFI (0.1 uM, single replicates) was 178.8 and 191.8 and 186.8 and the conc/live cell (0.1 uM, single replicates) was 978.6 pg/10^5 and 1381.5 pg/10^5 and 1181.6 pg/10^5. For the same molecule, the Concentration (1 uM, Mean) was 6838.4 pg/mL, the MFI (1 uM, Mean) was 189.8 and the conc/live cell (1 uM, Mean) was 1364.4 pg/10^5. The Concentration (1 uM, single replicates) was 6821.4 pg/mL and 7217.5 pg/mL and 6476.2 pg/mL, the MFI (1 uM, single replicates) was 189.3 and 200.8 and 179.3 and the conc/live cell (1 uM, single replicates) was 1240.3 pg/10^5 and 1503.6 pg/10^5 and 1349.2 pg/10^5. The Concentration (10 uM, Mean) was 6769.7 pg/mL, the MFI (10 uM, Mean) was 187.8 and the conc/live cell (10 uM, Mean) was 1286.9 pg/10^5. The Concentration (10 uM, single replicates) was 6890.4 pg/mL and 6700.7 pg/mL and 6717.9 pg/mL, the MFI (10 uM, single replicates) was 191.3 and 185.8 and 186.3 and the conc/live cell (10 uM, single replicates) was 1276.0 pg/10^5 and 1155.3 pg/10^5 and 1429.3 pg/10^5. For the same molecule, the Concentration (100 uM, Mean) was 7572.5 pg/mL, the MFI (100 uM, Mean) was 211.1 and the conc/live cell (100 uM, Mean) was 1247.9 pg/10^5. The Concentration (100 uM, single replicates) was 7801.4 pg/mL and 7715.7 pg/mL and 7200.3 pg/mL, the MFI (100 uM, single replicates) was 217.8 and 215.3 and 200.3 and the conc/live cell (100 uM, single replicates) was 1278.9 pg/10^5 and 1264.9 pg/10^5 and 1200.1 pg/10^5.
`CC(C)C[C@H](NC(=O)[C@H](CCC(N)=O)NC(=O)CNC(=O)[C@@H]1C[C@@H](O)CN1)C(=O)NCC(=O)O` [YDE-043] (H-[Hyp]GQLG-OH; N-terminus and C-terminus assumed) showed a Concentration (0.001 uM, Mean) of 7090.4 pg/mL, an MFI (0.001 uM, Mean) of 197.1 and a conc/live cell (0.001 uM, Mean) of 1434.2 pg/10^5. For the same molecule, the Concentration (0.001 uM, single replicates) was 6355.1 pg/mL and 7578.4 pg/mL and 7337.9 pg/mL, the MFI (0.001 uM, single replicates) was 175.8 and 211.3 and 204.3 and the conc/live cell (0.001 uM, single replicates) was 1444.3 pg/10^5 and 1263.1 pg/10^5 and 1595.2 pg/10^5. It also gave a Concentration (0.01 uM, Mean) of 6942.0 pg/mL, an MFI (0.01 uM, Mean) of 192.8 and a conc/live cell (0.01 uM, Mean) of 1327.4 pg/10^5. The Concentration (0.01 uM, single replicates) was 7062.6 pg/mL and 7011.0 pg/mL and 6752.4 pg/mL, the MFI (0.01 uM, single replicates) was 196.3 and 194.8 and 187.3 and the conc/live cell (0.01 uM, single replicates) was 1569.5 pg/10^5 and 1062.3 pg/10^5 and 1350.5 pg/10^5. The Concentration (0.1 uM, Mean) was 6590.8 pg/mL, the MFI (0.1 uM, Mean) was 182.6 and the conc/live cell (0.1 uM, Mean) was 1223.6 pg/10^5. The Concentration (0.1 uM, single replicates) was 6528.0 pg/mL and 6147.3 pg/mL and 7097.1 pg/mL, the MFI (0.1 uM, single replicates) was 180.8 and 169.8 and 197.3 and the conc/live cell (0.1 uM, single replicates) was 1305.6 pg/10^5 and 1097.7 pg/10^5 and 1267.3 pg/10^5. The Concentration (1 uM, Mean) was 6992.5 pg/mL, the MFI (1 uM, Mean) was 194.3 and the conc/live cell (1 uM, Mean) was 1321.1 pg/10^5. The Concentration (1 uM, single replicates) was 7131.5 pg/mL and 6164.6 pg/mL and 7681.3 pg/mL, the MFI (1 uM, single replicates) was 198.3 and 170.3 and 214.3 and the conc/live cell (1 uM, single replicates) was 1229.6 pg/10^5 and 1284.3 pg/10^5 and 1449.3 pg/10^5. It also gave a Concentration (10 uM, Mean) of 9513.9 pg/mL, an MFI (10 uM, Mean) of 268.1 and a conc/live cell (10 uM, Mean) of 1764.4 pg/10^5. The Concentration (10 uM, single replicates) was 7303.5 pg/mL and 14554.8 pg/mL and 6683.4 pg/mL, the MFI (10 uM, single replicates) was 203.3 and 415.8 and 185.3 and the conc/live cell (10 uM, single replicates) was 1404.5 pg/10^5 and 2695.3 pg/10^5 and 1193.5 pg/10^5. It also gave a Concentration (100 uM, Mean) of 7286.3 pg/mL, an MFI (100 uM, Mean) of 202.8 and a conc/live cell (100 uM, Mean) of 1157.1 pg/10^5. The Concentration (100 uM, single replicates) was 7389.4 pg/mL and 7183.1 pg/mL, the MFI (100 uM, single replicates) was 205.8 and 199.8 and the conc/live cell (100 uM, single replicates) was 1191.8 pg/10^5 and 1122.4 pg/10^5.
